PubChem BioAssay AID602296 (Broad Institute, 2012)
Inconclusive results are not listed. The source made the active and inactive calls.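 How the source made its calls: active means fitted activation curve crossing 40% at a concentration no higher than the sample's top valid tested dose; inconclusive means flat fitted curve at 30% to 70% activation, or poor curve fit; inactive means signal decrease, flat curve within 30%, or the rest.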

The compounds below were run on NIH3T3-HGL HSF-1 response element luciferase, 48 h (assay: HSF-1 reporter activators over prolonged exposure, confirmation, cell-based, mouse, luciferase, cherry-pick, dose (AID 602296);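 further: test compounds applied by themselves with no MG132 co-treatment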).
With Cc1ccc(NC(=O)c2cc3c(=O)oc4ccccc4c3s2)nc1 the AC40 was > 26 µM (inactive).
O=C(O)c1c(Cl)c(Cl)c(Cl)c(Cl)c1C(=O)N1CCCC1 was tested, and the AC40 was > 26 µM (inactive).
With O=C(Cc1c(O)c2ccccc2[nH]c1=O)NCc1ccccc1 the AC40 was > 26 µM (inactive).
CC(C)Nc1nc(Cl)nc(N(C#N)CN2C(=O)c3ccccc3C2=O)n1 was tested, and the AC40 was > 26 µM (inactive).
For COCOc1cc(O)c(C(=O)/C=C/c2ccccc2)c(OCOC)c1, the AC40 was 7.9 µM.
Cc1c(/C=N/NC(=O)c2ccc(Br)o2)cnn1C was tested, and the AC40 was 22.4 µM.
O=C1Nc2ccccc2/C1=C/c1cnc[nH]1 was tested, and the AC40 was > 26 µM (inactive).
With Cc1ccc(CC2SC(N=C(N)N)=NC2=O)cc1 (configuration not stated) the AC40 was > 26 µM (inactive).
COc1ccc(C2C3=C(CCCC3=O)N(CC(=O)O)C3=C2C(=O)CCC3)cc1Cl was tested, and the AC40 was > 26 µM (inactive).
Work on O=C(N/N=C/CCc1ccccc1)c1ccccc1 yielded an AC40 of 15.5 µM.
CCCn1c(SCc2nc3sc(C)c(C)c3c(=O)[nH]2)nc2ccccc2c1=O was tested, and the AC40 was > 26 µM (inactive).
COc1ccc(-n2cnnc2SCC(=O)N(C)C2CCS(=O)(=O)C2)cc1 (configuration not stated) was tested, and the AC40 was > 26 µM (inactive).
In the case of C=CCN1C(=O)C(Cc2ccc(OCC)cc2)SC1=Nc1ccc(C(=O)O)cc1 (configuration not stated), the AC40 is reported as > 26 µM (inactive).
For O=C(NC(CO)(CO)CO)c1coc(=O)c(Br)c1, the AC40 was > 26 µM (inactive).
CC(=O)Oc1ccc(Cn2cnc3cc4ccccc4cc32)cc1 gave an AC40 of 14.7 µM.
In the case of Cc1ccccc1CC(=O)NC1CCCc2ccccc21 (configuration not stated), the AC40 is reported as > 26 µM (inactive).
OC(CNCc1cccc(Cl)c1)c1ccccc1 (configuration not stated) gave an AC40 of 24.8 µM.
In the case of Nc1nnc(CSCc2ccccc2Cl)s1, the AC40 is reported as > 26 µM (inactive).
In the case of S=c1sc2c(Cl)ncnc2n1-c1ccccc1, the AC40 is reported as > 12 µM (inactive).
For Cc1cnn(-c2cc(N/N=C/c3cccc(F)c3)ncn2)c1, the AC40 was 9.32 µM.
For CNc1nc(-c2ccccc2)cc(C)c1S(C)(=O)=O, the AC40 was > 26 µM (inactive).
N#C/C(=C\c1ccc(OCc2ccc(Cl)cc2)cc1)C(=O)Nc1cccc(C(=O)O)c1 was tested, and the AC40 was 2.68 µM.
With CCC(=O)Nc1cccc(C(=O)/C=C/c2ccc(F)cc2)c1 the AC40 was 11.2 µM.
For COc1ccc(NC(=S)Nc2ccccc2SC)c(OC)c1, the AC40 was 24.2 µM.
Work on Cc1nc2ccccc2nc(C)c1=NOCc1ccccc1Cl yielded an AC40 of 3.97 µM.
For C=CC[n+]1c(-c2ccc(OC)cc2)csc1NNC(=O)Nc1ccccc1, the AC40 was > 12 µM (inactive).
With Cc1cc(-c2nnc(CCC(=O)N(C)Cc3cccc4ccccc34)o2)no1 the AC40 was 12 µM.
S=C(Nc1ccccc1)Nc1ccc(Cl)cn1 showed an AC40 of 21 µM.
With CCOC(=O)c1cccc(NC(=O)Cn2c(CC(=O)NC)nc3ccccc32)c1 the AC40 was > 26 µM (inactive).
With CCCNC(=O)Nc1ccc(C)cc1C the AC40 was > 26 µM (inactive).
For CNC(=O)C1CC(=O)N(c2ccc(OCC(=O)N3CCCC3)cc2)C1 (configuration not stated), the AC40 was > 26 µM (inactive).
With COc1cnn(-c2cc(Oc3ccc(C)cc3)ncn2)c(=O)c1Cl the AC40 was > 26 µM (inactive).
For CC(=O)Nc1nnc(SCC(=O)c2ccc(F)cc2)s1, the AC40 was 17.4 µM.
COc1ccc(NC(=O)NNC(=O)c2cc3occc3n2C)c(OC)c1 was tested, and the AC40 was > 26 µM (inactive).
NC(=O)c1c(NC(=O)Cc2ccccc2)sc2c1CCN(Cc1ccccc1)C2 was tested, and the AC40 was > 26 µM (inactive).
In the case of Cc1onc(-c2ccccc2)c1NC(=O)N(CCC#N)Cc1ccccc1, the AC40 is reported as > 26 µM (inactive).
CSC(=NC#N)N1CCN(c2ccc(Cl)cc2)CC1 was tested, and the AC40 was 25.3 µM.
With O=C(O)CN1C(=O)/C(=C\c2cc(Br)ccc2OCc2ccc(F)cc2)SC1=S the AC40 was > 26 µM (inactive).
For Cc1cccc(C)c1NC(=O)COC(=O)c1cccc2c1C(=O)c1ccccc1C2=O, the AC40 was > 26 µM (inactive).
For O=C(O)CSc1nnnn1-c1ccc2c(c1)OCCO2, the AC40 was > 26 µM (inactive).
With O=C(C1CCC(CNS(=O)(=O)c2cccc3nsnc23)CC1)N1CCN(c2ccccn2)CC1 (configuration not stated) the AC40 was > 26 µM (inactive).
With c1ccc2c3c([nH]c2c1)CCNC3 the AC40 was > 26 µM (inactive).
With O=C(NC1CCSc2ccccc21)c1ccccc1Cl (configuration not stated) the AC40 was 6.46 µM.
For CCOc1ncccc1C(=O)NCCc1c[nH]c2ccccc12, the AC40 was > 26 µM (inactive).
O=C(CSCc1ccc(Br)cc1)N1CCCC1 showed an AC40 of 11.3 µM.
COc1ccc(-c2nnc3ccc(SCC(=O)NCC4CCCO4)nn23)cc1 (configuration not stated) was tested, and the AC40 was > 26 µM (inactive).
For CCCN1C(=O)c2ccccc2NC1c1ccc(Cl)c(Cl)c1 (configuration not stated), the AC40 was > 26 µM (inactive).
CC(Oc1ccc(F)cc1Br)c1nc2ccccc2c(=O)[nH]1 (configuration not stated) showed an AC40 of 17.3 µM.
With S=C1NC(c2ccccc2)=NCN1c1ccc(Br)cc1 the AC40 was 8.41 µM.
In the case of O=C1CC(N2C(=O)/C(=C/C=C/c3ccccc3)SC2=S)C(=O)N1c1ccccc1 (configuration not stated), the AC40 is reported as > 26 µM (inactive).
With Cc1ccc(N2C(=O)CCC2(C#N)c2ccccc2)cc1 (configuration not stated) the AC40 was > 26 µM (inactive).
C=CCn1c(-c2cc(-c3ccccc3)sc2N)n[nH]c1=S was tested, and the AC40 was 12.3 µM.
With COCCCN(CC(=O)O)S(=O)(=O)c1cccc(Cl)c1 the AC40 was > 26 µM (inactive).
In the case of N#C/C(C(=O)NCc1ccccc1)=C1/N=C(NC(=O)c2ccco2)c2ccccc21, the AC40 is reported as > 26 µM (inactive).
With CCOC(=O)C(=O)/C(C#N)=C/Nc1ccccc1 the AC40 was > 26 µM (inactive).
Cc1nc(S(=O)(=O)c2ccc(Cl)cc2)c(NCc2ccccc2)o1 was tested, and the AC40 was > 26 µM (inactive).
Cc1ccc(Nc2c(N)c(=O)oc3ccccc23)cc1 was tested, and the AC40 was > 26 µM (inactive).
For Cc1cc(/C=C(/C#N)c2cccc(Cl)c2)c(C)n1C, the AC40 was > 26 µM (inactive).
Work on O=C1C=C(c2ccccc2)CC(/C=C/c2ccccc2)C1 (configuration not stated) yielded an AC40 of 18 µM.
O=c1c2ccccc2[nH]c(=S)n1CCC1=CCCCC1 showed an AC40 of 11.3 µM.
In the case of O=[N+]([O-])c1ccc(Sc2ccccc2)nc1, the AC40 is reported as > 26 µM (inactive).
With CC(C)[C@H](NC(=O)OC(C)(C)C)c1nnc(SCC(=O)Nc2ccc(Br)cc2)o1 the AC40 was > 26 µM (inactive).
NC1=NC(=O)/C(=C/c2cn(Cc3ccccc3)c3ccccc23)S1 gave an AC40 of 9.09 µM.
CCN(CC)C(=O)c1ccc(C)c(Br)c1 was tested, and the AC40 was > 26 µM (inactive).
Work on Fc1cc(NCc2ccccc2)nc(NCc2ccccc2)n1 yielded an AC40 of 9.52 µM.
For CCCCN(CCCNC(=O)C1CCN(S(=O)(=O)CC)CC1)c1ccccc1, the AC40 was 10.4 µM.
COC(=O)C(C)N(C(=O)c1ccc(C(=O)c2ccccc2)cc1)c1c(C)cccc1C (configuration not stated) was tested, and the AC40 was 19.3 µM.
O=C1c2ccccc2C(=O)N1CC(O)COc1ccc(Br)cc1 (configuration not stated) showed an AC40 of 13.7 µM.
For Nc1c(-c2ccsc2)cnc2ncnn12, the AC40 was > 26 µM (inactive).
Cc1ccccc1CSc1nsc(N)n1 was tested, and the AC40 was 16.5 µM.
With Cc1cc(C)n2nc(C(=O)N/N=C/c3c4ccccc4cc4ccccc34)nc2n1 the AC40 was > 12 µM (inactive).
In the case of CCC1Oc2ccc(C)cc2N(Cc2cccc(C)c2)C1=O (configuration not stated), the AC40 is reported as 13.1 µM.
CC1(c2ccc([N+](=O)[O-])cc2)NC(=O)N(CC(=O)c2ccc3c(c2)OCO3)C1=O (configuration not stated) was tested, and the AC40 was > 26 µM (inactive).
Compound COC(=O)C1(O)CC(CC(C)C)=NN1C(=O)c1ccccc1 (configuration not stated) has an AC40 of 20.3 µM.
For C[C@H](NC(=O)[C@@H]1CSC2c3ccccc3C(=O)N21)C(=O)NCCc1ccccc1 (some centres not stated), the AC40 was 24.7 µM.
COc1cccc(N=CC2=C(O)CC(C)(C)CC2=O)c1 was tested, and the AC40 was > 26 µM (inactive).
In the case of CCCc1cc(=O)[nH]c(SCC(=O)Nc2ccc(C)cc2)n1, the AC40 is reported as > 26 µM (inactive).
In the case of CSc1ccc(Cl)c(C(=O)OCC(=O)N(C)CCC#N)c1, the AC40 is reported as > 26 µM (inactive).
Cc1nnc(Sc2nc3c(c(=O)n(C)c(=O)n3C)n2Cc2ccccc2Cl)s1 was tested, and the AC40 was > 26 µM (inactive).
In the case of O=[N+]([O-])c1ccc(-c2csc(Nc3ccccc3)[n+]2Cc2ccccc2)cc1, the AC40 is reported as 10.9 µM.
Clc1ccc(-c2nc(/C=N/N3CCOCC3)c3ccccn23)cc1 showed an AC40 of 18.3 µM.
CC1(c2cccs2)CC(c2cccs2)=C(C#N)C(=O)N1 (configuration not stated) was tested, and the AC40 was > 26 µM (inactive).
In the case of COc1cc(/C=N/N2C(=O)c3ccccc3NC2(C)c2cccc([N+](=O)[O-])c2)cc(Br)c1O (configuration not stated), the AC40 is reported as > 26 µM (inactive).
In the case of NC(=O)Cc1ccc2c(c1)[nH]c1ccccc12, the AC40 is reported as > 26 µM (inactive).
CC(C)(C)c1[nH]ncc1[N+](=O)[O-] was tested, and the AC40 was > 26 µM (inactive).
Compound N#CC(C#N)=C1C=CC=CN1/C(=C\c1ccccc1)C(=O)c1cccs1 has an AC40 of 12.3 µM.
COc1ccc(C)cc1Cn1c(S(C)(=O)=O)nc2ccccc21 was tested, and the AC40 was > 26 µM (inactive).
With Cc1ccccc1/[N+]([O-])=C/c1cccs1 the AC40 was > 26 µM (inactive).
CN1C(=O)C2C(c3ccc(N(C)C)cc3)=NN(Cc3ccccc3)C2C1=O (configuration not stated) was tested, and the AC40 was > 26 µM (inactive).
Cc1ccc2nc(NCc3ccccc3)c(C=O)c(=O)n2c1 gave an AC40 of 11 µM.
With O=C(CSc1nc2nccnc2c(=O)n1Cc1cccs1)Nc1ccccc1F the AC40 was 9.52 µM.
Work on O=C(Cc1cccs1)NCc1ccccc1Br yielded an AC40 of 1.77 µM.
Nc1cc(-c2ccco2)no1 was tested, and the AC40 was > 26 µM (inactive).
With CC1(C)CC(=O)C=C(NC2=CC3OC(c4ccccc4)OCC3OC2=O)C1 (configuration not stated) the AC40 was 13.2 µM.
Cc1cccc(N2CCN(C(=O)CSCc3c(C)noc3C)CC2)c1C showed an AC40 of 20.1 µM.
Cc1ccc(CN2CCN(CC(C)C)C(CCO)C2)s1 (configuration not stated) showed an AC40 of 1.66 µM.
With N#Cc1ccsc1NC(=O)CN1CCN(S(=O)(=O)c2ccc3ccccc3c2)CC1 the AC40 was > 26 µM (inactive).
For C[C@]12CC[C@@H]3c4cc(O)c(O)cc4CC[C@H]3[C@@H]1CC[C@@H]2O, the AC40 was 25.2 µM.
Cn1c(CO)cnc1SCC(=O)c1ccc(Cl)cc1 gave an AC40 of 8.6 µM.
Oc1cccnc1Sc1cccc(C(F)(F)F)c1 was tested, and the AC40 was > 26 µM (inactive).
In the case of CCOc1ccccc1CNCCN1CCOCC1, the AC40 is reported as > 26 µM (inactive).
For COc1cc(SSc2cc(OC)cc([N+](=O)[O-])c2N)c(N)c([N+](=O)[O-])c1, the AC40 was 17.9 µM.
With O=C(NC1C(=O)NNC1c1ccccc1)c1ccccc1 (configuration not stated) the AC40 was 6.88 µM.
O=C1NC(=S)S/C1=C/c1ccc(OC(=O)c2ccco2)cc1 gave an AC40 of 22.5 µM.
With CC(C)(CNC(=O)/C=C/c1ccc(F)cc1)CNC(=O)/C=C/c1ccc(F)cc1 the AC40 was > 26 µM (inactive).
With CCCCC(=O)OCC(=O)c1[nH]c(C)c(C(=O)OCC)c1C the AC40 was 7.5 µM.
In the case of CCOc1ccc(CN(C)C(=O)CNC(=O)c2ccc3ccccc3c2)cc1OC, the AC40 is reported as > 26 µM (inactive).
In the case of CCN(CC)C(=O)CSc1ncnc2sc(C)c(C)c12, the AC40 is reported as > 26 µM (inactive).
For CCC1CCCCN1C(=O)COC(=O)c1cc2ccccc2cc1O (configuration not stated), the AC40 was > 26 µM (inactive).
Cn1c(CCCOc2ccc(Cl)cc2Cl)nnc1SCC(=O)Nc1cccc(F)c1 showed an AC40 of 20.2 µM.
In the case of CSc1ccc(/C=N\Nc2nncn2N)cc1, the AC40 is reported as > 26 µM (inactive).
In the case of CCOC(=O)C1CCCN(C(=O)c2sc3nc(C)nc(N(CC)CC)c3c2C)C1 (configuration not stated), the AC40 is reported as > 26 µM (inactive).
